The term melting point denotes the temperature of the solid-liquid transition.

Converted amounts (≈) assume the structure as drawn. Like-named read-outs stand apart in the source and are kept apart here.

These results are taken from publication PMC6225228, “Design, Synthesis and Evaluation of N-pyrazinylbenzamides as Potential Antimycobacterial Agents” (Molecules : A Journal of Synthetic Chemistry and Natural …, 2018).

The test system of data set [1] is Mycobacterium smegmatis CCM 4622 (ATCC 607). Description: Antimycobacterial microdilution, M. smegmatis. The format is cell-based. The following applies: Mycolicibacterium smegmatis, read-out: M. smeg. ATCC 607 MIC.
Data set [2] concerns M. avium ssp. avium CNCTC My 80/72 (ATCC 15769). As to the kind of experiment: Antimycobacterial microdilution MABA, M. avium. The format is cell-based, Mycobacterium avium. The following applies: for MIC: Mycobacterium avium. Background: In broth dilution the organism is exposed to a series of concentrations in liquid medium.
The test system of data set [3] is M. kansasii CNCTC My 235/80 (ATCC 12478). Description: Antimycobacterial microdilution MABA, M. kansasii. The format is cell-based, Mycobacterium kansasii. The following applies: for MIC: Mycobacterium kansasii.
The test system of data set [4] is Mycobacterium tuberculosis H37Rv CNCTC My 331/88 (ATCC 27294). Description: Antimycobacterial microdilution MABA, M. tuberculosis. The format is cell-based. Particulars: for MIC: Mycobacterium tuberculosis.
The test system of data set [5] is Enterococcus sp. J 14365/08. Description: Antibacterial microdilution broth, EF. The class given is cell-based. Particulars: Enterococcus, read-out: MIC EF.
For a further data set, the system named is Candida glabrata 20/I. As to the kind of experiment: Antifungal microdilution broth, CG. The format is cell-based. Particulars: Nakaseomyces glabratus, 20/I, read-out: MIC CG.
The subject of the next data set is Candida tropicalis 156. As to the kind of experiment: Antifungal microdilution broth, CT. The format is cell-based. Particulars: read-out: MIC CT.
For data set [6], the system named is Lichtheimia corymbifera 272. Description: Antifungal microdilution broth, LC. The format is cell-based. Particulars: read-out: MIC LC.
Data set [7] has as its system Staphylococcus aureus CCM 4516/08. Description: Antibacterial microdilution broth, SA. The format is cell-based.
Another data set concerns Trichosporon asahii 1188. As to the kind of experiment: Antifungal microdilution broth, TA. The format is cell-based. Particulars: read-out: MIC TA.
Data set [8] has as its system Trichophyton interdigitale 445. Description: Antifungal microdilution broth, TI. The format is cell-based. The following applies: read-out: MIC TI.
Data set [9] has as its system Escherichia coli CCM 4517. Description: Antibacterial microdilution broth, EC. The format is cell-based. Particulars: Escherichia coli, read-out: MIC EC.
In a further data set the test system is Candida krusei E28. Description: Antifungal microdilution broth, CK. The class given is cell-based. Particulars: Pichia kudriavzevii, read-out: MIC CK.
In data set [10] the test system is Staphylococcus aureus H 5996/08 methicillin resistant. Description: microbe, parasite or virus in culture. The class given is cell-based. The following applies: for MIC: Staphylococcus aureus, MRSA, read-out: MIC MRSA.
For data set [11], the system named is Aspergillus fumigatus 231. Description: Antifungal microdilution broth, AF. The format is cell-based. The following applies: read-out: MIC AF.
In data set [12] the test system is Pseudomonas aeruginosa CCM 1961. As to the kind of experiment: Antibacterial microdilution broth, PA. The class given is cell-based. Particulars: Pseudomonas aeruginosa, read-out: MIC PA.
Data set [13] relates to Candida albicans ATCC 44859. Description: Antifungal microdilution broth, CA. The class given is cell-based. The following applies: Candida albicans, read-out: MIC CA.
In data set [14] the test system is Staphylococcus epidermidis H 6966/08. As to the kind of experiment: Antibacterial microdilution broth, SE. Particulars: read-out: MIC SE. The class given is cell-based.
[15] abbreviates: Middlebrook 7H9 with OADC, resazurin.
The mark [16] stands for this setting: ATCC15769, Middlebrook 7H9 with OADC, pH 6.6, MABA, read-out: M. avium ATCC 15769 MIC.
Setting [17] is: ATCC12478, Middlebrook 7H9 with OADC, pH 6.6, MABA, read-out: M. kans. ATCC 12478 MIC.
[18] abbreviates: Middlebrook 7H9 with OADC growth supplement, pH = 6.6, MABA.
Where [19] appears, read: Middlebrook 7H9 with OADC growth supplement, pH = 6.6, MABA, read-out: Mtb H37Rv ATCC 27294 MIC.
Where [20] appears, read: Middlebrook 7H9 with OADC, pH 6.6, MABA.

`O=C(Nc1cncc(Cl)n1)c1ccc(Cl)cc1` [Compound 3l] showed a melting point of 193.8 to 194.7 °C. The MIC in data set [1] (setting [15]) was at least 500 µg/mL. For the same compound, in [2] (setting [16]), the MIC was over 100 µg/mL. Also, the MIC in [3] (setting [17]) is over 100 µg/mL. Besides, the “Mtb H37Rv ATCC 27294 MIC” value in data set [4] (setting [18]) is recorded as over 100 µg/mL. Besides, the MIC in data set [4] (setting [19]) is over 100 µg/mL.
The compound `O=C(Nc1cnc(Cl)cn1)c1cccc(C(F)(F)F)c1` [Compound 2n] displayed a melting point of 155.4 to 156.4 °C. Moreover, the MIC in data set [1] (setting [15]) is at least 500 µg/mL. In addition, the “M. avium ATCC 15769 MIC” value in data set [2] (setting [20]) is reported as over 100 µg/mL. The MIC in [2] (setting [16]) was over 100 µg/mL. Besides, the “M. kans. ATCC 12478 MIC” value in [3] (setting [20]) is reported as over 100 µg/mL. In addition, in data set [3] (setting [17]), the MIC was over 100 µg/mL. Also, in [4] (setting [19]), the MIC was 25 µg/mL (≈ 82.9 µM).
Compound `O=C(Nc1cncc(Cl)n1)c1ccccc1` [Compound 3a] came in with a melting point of 152.8 to 153.6 °C. For the same compound, the MIC in data set [1] (setting [15]) was at least 500 µg/mL. Also, the MIC in data set [2] (setting [16]) is over 100 µg/mL. The MIC in data set [3] (setting [17]) was over 100 µg/mL. Further, the “Mtb H37Rv ATCC 27294 MIC” value in data set [4] (setting [18]) was over 100 µg/mL. Moreover, the MIC in [4] (setting [19]) was over 100 µg/mL.
Regarding `O=C(Nc1cnccn1)c1cccc(C(F)(F)F)c1` [Compound 1n], the MIC in [5] (SP.J14365/08, 24 h) is over 125 µM; in data set [5] (SP.J14365/08, 48 h), over 125 µM; in the data set on Candida glabrata 20/I (24 h) it was over 125 µM; in the data set with Candida glabrata 20/I (48 h), over 125 µM; in data set [1], at least 500 µg/mL; in data set [2] (ATCC15769, pH 6.6, read-out: M. avium ATCC 15769 MIC), over 100 µg/mL. Besides, the MIC with Candida tropicalis 156 (Candida tropicalis, 156, 24 h) is over 125 µM; in the data set with Candida tropicalis 156 (Candida tropicalis, 156, 48 h), over 125 µM; in data set [3] (ATCC12478, pH 6.6, read-out: M. kans. ATCC 12478 MIC, Middlebrook 7H9 with OADC, pH 6.6, MABA) it was over 100 µg/mL; in data set [6] (Lichtheimia corymbifera, 272, 24 h) it was over 125 µM; in data set [6] (Lichtheimia corymbifera, 272, 48 h) it was over 125 µM; in data set [7] (24 h, read-out: MIC SA) it was over 125 µM. For the same compound, the MIC in [7] (48 h, read-out: MIC SA) is over 125 µM; in [7] (Staphylococcus aureus, CCM4516, 24 h, read-out: MIC SA, 24 h), over 125 µM; in data set [7] (Staphylococcus aureus, CCM4516, 48 h, read-out: MIC SA, 48 h) it was over 125 µM; with Trichosporon asahii 1188 (Trichosporon asahii, 1188, 24 h), over 125 µM; in the data set with Trichosporon asahii 1188 (Trichosporon asahii, 1188, 48 h) it was over 125 µM; in data set [4] (read-out: Mtb H37Rv ATCC 27294 MIC, Middlebrook 7H9 with OADC growth supplement, pH = 6.6, MABA) it was over 100 µg/mL. Also, the MIC is over 125 µM in [8] (Trichophyton interdigitale, 445, 72 h); over 125 µM in data set [8] (Trichophyton interdigitale, 445, 120 h); over 125 µM in [9] (CCM4517, 24 h); over 125 µM in data set [9] (CCM4517, 48 h); over 125 µM in the data set with Candida krusei E28 (E28, 24 h); over 125 µM in the data set with Candida krusei E28 (E28, 48 h). Further, the MIC is over 125 µM in [10] (24 h); over 125 µM in [10] (48 h); over 125 µM in [11] (Aspergillus fumigatus, 231, 24 h); over 125 µM in data set [11] (Aspergillus fumigatus, 231, 48 h); over 125 µM in data set [12] (CCM1961, 72 h); over 125 µM in [12] (CCM1961, 120 h). Moreover, the MIC in data set [13] (ATCC44859, 24 h) is over 125 µM; in [13] (ATCC44859, 48 h) it was over 125 µM; in [14] (24 h), 62.50 µM (≈ 16.7 µg/mL); in [14] (48 h), 62.50 µM (≈ 16.7 µg/mL); in data set [14] (Staphylococcus epidermidis, H6966/08, 24 h), 62.5 µM (≈ 16.7 µg/mL); in [14] (Staphylococcus epidermidis, H6966/08, 48 h), 62.5 µM (≈ 16.7 µg/mL). For the same compound, in [4] (setting [18]), the “Mtb H37Rv ATCC 27294 MIC” value is recorded as over 100 µg/mL. Besides, the “MIC MRSA” value in data set [10] (24 h) and in data set [10] (48 h) was over 125 µM each time.
Compound `COc1ccc(C(=O)Nc2cncc(Cl)n2)cc1` [Compound 3g] showed a melting point of 196.9 to 198.8 °C. Besides, the MIC in [1] (setting [15]) is at least 500 µg/mL. Besides, the MIC in data set [2] (setting [16]) is over 100 µg/mL. For the same compound, in data set [3] (setting [17]), the MIC was over 100 µg/mL. Besides, the MIC in data set [4] (setting [19]) was over 100 µg/mL.
